Laboratory results from US12473304B2, “Heterocyclic PAD4 inhibitors” (BRISTOL-MYERS SQUIBB COMPANY, priority 2020, dated 2025).

Biological target: human PAD4 (hPAD4) (Homo sapiens (Human), UniProt Q9UM07)
Test: RFMS Human PAD4 Functional Assay 1
Type: biochemical
Conditions: RFMS assay 1; 5 nM hPAD4, 250 μM BAEE substrate, 50 μM calcium, 37° C.
Procedure, shortened: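 Recombinant hPAD4 (5 nM) was preincubated with compound (top 50 μM, 0.5% DMSO) for 30 min at 37 °C, then reacted with 250 μM BAEE for 90 min at 37 °C in pH 7.5 HEPES buffer with 50 μM calcium and 5 μM TPEN. Product was derivatized with phenyl glyoxal and quantified by RapidFire MS.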

Chain of human PAD4 (hPAD4) (Q9UM07 whole entry): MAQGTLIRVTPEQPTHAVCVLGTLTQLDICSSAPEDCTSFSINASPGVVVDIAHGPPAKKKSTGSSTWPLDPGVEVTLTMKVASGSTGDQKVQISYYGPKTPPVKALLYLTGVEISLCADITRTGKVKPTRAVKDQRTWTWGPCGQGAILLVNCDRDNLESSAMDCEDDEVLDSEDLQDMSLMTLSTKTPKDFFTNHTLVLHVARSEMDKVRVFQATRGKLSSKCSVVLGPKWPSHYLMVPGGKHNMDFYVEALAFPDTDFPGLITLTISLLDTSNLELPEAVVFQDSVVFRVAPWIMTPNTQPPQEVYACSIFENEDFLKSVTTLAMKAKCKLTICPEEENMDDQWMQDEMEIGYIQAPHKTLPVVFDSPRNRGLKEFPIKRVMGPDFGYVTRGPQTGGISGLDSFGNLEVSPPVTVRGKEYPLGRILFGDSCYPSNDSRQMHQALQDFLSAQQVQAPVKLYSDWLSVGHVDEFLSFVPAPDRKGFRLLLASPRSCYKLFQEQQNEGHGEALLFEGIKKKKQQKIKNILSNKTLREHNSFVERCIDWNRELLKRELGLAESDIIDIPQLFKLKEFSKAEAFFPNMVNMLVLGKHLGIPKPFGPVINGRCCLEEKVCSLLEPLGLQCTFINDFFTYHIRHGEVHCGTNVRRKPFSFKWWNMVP

Structure (SMILES) | IC50 [nM]
Cc1c(-c2cc3ccc(N4CCC(O)CC4)nc3n2CC2CC2)nn2cc(C(=O)N3CC4CCC3[C@@H]4N)ccc12 (stereo partly drawn) [Example 77, ((7R)-7-Amino-2-azabicyclo[2.2.1]heptan-2-yl)(2-(1-(cyclopropylmethyl)-6-(4-hydroxypiperidin-1-yl)-1H-pyrrolo[2,3-b]pyridin-2-yl)-3-methylpyrazolo[1,5-a]pyridin-6-yl)methanone] | 77
Cc1c(-c2cc3ccc(N4CCC[C@@H](O)C4)nc3n2CC2CC2)nn2cc(C(=O)N3CC4CCC3[C@@H]4N)ccc12 (stereo partly drawn) [Example 78, ((7R)-7-Amino-2-azabicyclo[2.2.1]heptan-2-yl)(2-(1-(cyclopropylmethyl)-6-((R)-3-hydroxypiperidin-1-yl)-1H-pyrrolo[2,3-b]pyridin-2-yl)-3-methylpyrazolo[1,5-a]pyridin-6-yl)methanone] | 143
COC1CN(c2ccc3cc(-c4nn5cc(C(=O)N6CC7CCC6[C@@H]7N)ccc5c4C)n(CC4CC4)c3n2)C1 (stereo partly drawn) [Example 79, ((7R)-7-Amino-2-azabicyclo[2.2.1]heptan-2-yl)(2-(1-(cyclopropylmethyl)-6-(3-methoxyazetidin-1-yl)-1H-pyrrolo[2,3-b]pyridin-2-yl)-3-methylpyrazolo[1,5-a]pyridin-6-yl)methanone] | 212
Cc1c(-c2cc3cccnc3n2CC2CC2)nn2cc(C(=O)N3C[C@H](N)C[C@@H](F)C3)ccc12 [Example 80, ((3R,5R)-3-Amino-5-fluoropiperidin-1-yl)(2-(1-(cyclopropylmethyl)-1H-pyrrolo[2,3-b]pyridin-2-yl)-3-methylpyrazolo[1,5-a]pyridin-6-yl)methanone] | 1610
Cc1c(-c2cc3ccc(-c4ccc5c(c4)CNC5=O)nc3n2CC2CC2)nn2cc(C(=O)N3C[C@H](N)C[C@@H](F)C3)ccc12 [Example 81, 5-(2-(6-((3R,5R)-3-Amino-5-fluoropiperidine-1-carbonyl)-3-methylpyrazolo[1,5-a]pyridin-2-yl)-1-(cyclopropylmethyl)-1H-pyrrolo[2,3-b]pyridin-6-yl)isoindolin-1-one] | 384
Cc1ccc2cc(-c3nn4cc(C(=O)N5C[C@H](N)C[C@@H](F)C5)ccc4c3C)n(CC3CC3)c2n1 [Example 82, ((3R,5R)-3-Amino-5-fluoropiperidin-1-yl)(2-(1-(cyclopropylmethyl)-6-methyl-1H-pyrrolo[2,3-b]pyridin-2-yl)-3-methylpyrazolo[1,5-a]pyridin-6-yl)methanone] | 368
Cc1c(-c2cc3ccc(-c4ccc5c(c4)C(=O)NC5)nc3n2CC2CC2)nn2cc(C(=O)N3C[C@H](N)C[C@@H](F)C3)ccc12 [Example 83, 6-(2-(6-((3R,5R)-3-Amino-5-fluoropiperidine-1-carbonyl)-3-methylpyrazolo[1,5-a]pyridin-2-yl)-1-(cyclopropylmethyl)-1H-pyrrolo[2,3-b]pyridin-6-yl)isoindolin-1-one] | 384
Cc1c(-c2cc3ccc(-c4ccc(C(N)=O)c(F)c4)nc3n2CC2CC2)nn2cc(C(=O)N3C[C@H](N)C[C@@H](F)C3)ccc12 [Example 84, 4-(2-(6-((3R,5R)-3-Amino-5-fluoropiperidine-1-carbonyl)-3-methylpyrazolo[1,5-a]pyridin-2-yl)-1-(cyclopropylmethyl)-1H-pyrrolo[2,3-b]pyridin-6-yl)-2-fluorobenzamide] | 610
Cc1c(-c2cc3ccc(-c4ccc(C(N)=O)c(Cl)c4)nc3n2CC2CC2)nn2cc(C(=O)N3C[C@H](N)C[C@@H](F)C3)ccc12 [Example 85, 4-(2-(6-((3R,5R)-3-Amino-5-fluoropiperidine-1-carbonyl)-3-methylpyrazolo[1,5-a]pyridin-2-yl)-1-(cyclopropylmethyl)-1H-pyrrolo[2,3-b]pyridin-6-yl)-2-chlorobenzamide] | 327
Cc1c(-c2cc3ccc(-c4cccc(O)c4F)nc3n2CC2CC2)nn2cc(C(=O)N3C[C@H](N)C[C@@H](F)C3)ccc12 [Example 86, ((3R,5R)-3-Amino-5-fluoropiperidin-1-yl)(2-(1-(cyclopropylmethyl)-6-(2-fluoro-3-hydroxyphenyl)-1H-pyrrolo[2,3-b]pyridin-2-yl)-3-methylpyrazolo[1,5-a]pyridin-6-yl)methanone] | 219
COC1CCN(c2ccc3cc(-c4nn5cc(C(=O)N6C[C@H](N)C[C@@H](F)C6)ccc5c4C)n(CC4CC4)c3n2)CC1 [Example 87, ((3R,5R)-3-Amino-5-fluoropiperidin-1-yl)(2-(1-(cyclopropylmethyl)-6-(4-methoxypiperidin-1-yl)-1H-pyrrolo[2,3-b]pyridin-2-yl)-3-methylpyrazolo[1,5-a]pyridin-6-yl)methanone] | 2320
Cc1c(-c2cc3ccc(N4CCC(O)CC4)nc3n2CC2CC2)nn2cc(C(=O)N3C[C@H](N)C[C@@H](F)C3)ccc12 [Example 88, ((3R,5R)-3-Amino-5-fluoropiperidin-1-yl)(2-(1-(cyclopropylmethyl)-6-(4-hydroxypiperidin-1-yl)-1H-pyrrolo[2,3-b]pyridin-2-yl)-3-methylpyrazolo[1,5-a]pyridin-6-yl)methanone] | 1680
Cc1c(-c2cc3ccc(-c4ccc5c(c4)C(=O)NC5)cc3n2CC2CC2)nn2cc(C(=O)N3CC4CCC3[C@@H]4N)ccc12 (stereo partly drawn) [Example 89, 6-(2-(6-((7R)-7-Amino-2-azabicyclo[2.2.1]heptane-2-carbonyl)-3-methylpyrazolo[1,5-a]pyridin-2-yl)-1-(cyclopropylmethyl)-1H-indol-6-yl)isoindolin-1-one] | 48
Cc1c(-c2cc3ccc(-c4ccc5c(c4)CNC5=O)cc3n2CC2CC2)nn2cc(C(=O)N3CC4CCC3[C@@H]4N)ccc12 (stereo partly drawn) [Example 90, 5-(2-(6-((7R)-7-Amino-2-azabicyclo[2.2.1]heptane-2-carbonyl)-3-methylpyrazolo[1,5-a]pyridin-2-yl)-1-(cyclopropylmethyl)-1H-indol-6-yl)isoindolin-1-one] | 12
Cc1c(-c2cc3ccc(N4CC(F)(CO)C4)cc3n2CC2CC2)nn2cc(C(=O)N3CC4CCC3[C@@H]4N)ccc12 (stereo partly drawn) [Example 91, ((7R)-7-Amino-2-azabicyclo[2.2.1]heptan-2-yl)(2-(1-(cyclopropylmethyl)-6-(3-fluoro-3-(hydroxymethyl)azetidin-1-yl)-1H-indol-2-yl)-3-methylpyrazolo[1,5-a]pyridin-6-yl)methanone] | 602

Next, values leading:

IC50 [nM] | Structure (SMILES)
672 | Cc1c(-c2cc3ccc(-c4cccc(O)c4F)cc3n2CC2CC2)nn2cc(C(=O)N3C[C@H](N)C[C@@H](F)C3)ccc12 [Example 92, ((3R,5R)-3-Amino-5-fluoropiperidin-1-yl)(2-(1-(cyclopropylmethyl)-6-(2-fluoro-3-hydroxyphenyl)-1H-indol-2-yl)-3-methylpyrazolo[1,5-a]pyridin-6-yl)methanone]
220 | Cc1c(-c2cc3ccc(-c4ccc(C(N)=O)c(F)c4)cc3n2CC2CC2)nn2cc(C(=O)N3C[C@H](N)C[C@@H](F)C3)ccc12 [Example 93, 4-(2-(6-((3R,5R)-3-Amino-5-fluoropiperidine-1-carbonyl)-3-methylpyrazolo[1,5-a]pyridin-2-yl)-1-(cyclopropylmethyl)-1H-indol-6-yl)-2-fluorobenzamide]
934 | Cc1c(-c2cc3ccc(-c4ccc(O)c(F)c4)cc3n2CC2CC2)nn2cc(C(=O)N3C[C@H](N)C[C@@H](F)C3)ccc12 [Example 94, ((3R,5R)-3-Amino-5-fluoropiperidin-1-yl)(2-(1-(cyclopropylmethyl)-6-(3-fluoro-4-hydroxyphenyl)-1H-indol-2-yl)-3-methylpyrazolo[l,5-a]pyridin-6-yl)methanone]
133 | Cc1c(-c2cc3ccc(-c4ccc5c(c4)CNC5=O)cc3n2CC2CC2)nn2cc(C(=O)N3C[C@H](N)C[C@@H](F)C3)ccc12 [Example 95, 5-(2-(6-((3R,5R)-3-Amino-5-fluoropiperidine-1-carbonyl)-3-methylpyrazolo[1,5-a]pyridin-2-yl)-1-(cyclopropylmethyl)-1H-indol-6-yl)isoindolin-1-one]
588 | Cc1c(-c2cc3ccc(-c4ccc5c(c4)C(=O)NC5)cc3n2CC2CC2)nn2cc(C(=O)N3C[C@H](N)C[C@@H](F)C3)ccc12 [Example 96, 6-(2-(6-((3R,5R)-3-Amino-5-fluoropiperidine-1-carbonyl)-3-methylpyrazolo[1,5-a]pyridin-2-yl)-1-(cyclopropylmethyl)-1H-indol-6-yl)isoindolin-1-one]
14 | COc1cc(C(=O)N2C[C@H](N)C[C@@H](F)C2)cn2nc(-c3cc4ccc(C(C)(C)O)cc4n3CC3CC3)c(C)c12 [Example 98, ((3R,5R)-3-Amino-5-fluoropiperidin-1-yl)(2-(1-(cyclopropylmethyl)-6-(2-hydroxypropan-2-yl)-1H-indol-2-yl)-4-methoxy-3-methylpyrazolo[1,5-a]pyridin-6-yl)methanone]
307 | COc1cc(C(=O)N2C[C@H](N)C[C@@H](F)C2)cn2nc(-c3cc4ccc(C(C)(O)C(F)(F)F)cc4n3CC3CC3)c(C)c12 (stereo partly drawn) [Example 99, ((3R,5R)-3-Amino-5-fluoropiperidin-1-yl)(2-(1-(cyclopropylmethyl)-6-(1,1,1-trifluoro-2-hydroxypropan-2-yl)-1H-indol-2-yl)-4-methoxy-3-methylpyrazolo[1,5-a]pyridin-6-yl)methanone]
36 | Cc1c(-c2cc3ccc(C(C)(C)O)cc3n2CC2CC2)nn2cc(C(=O)N3CC4CCC3[C@@H]4N)ccc12 (stereo partly drawn) [Example 100, ((7R)-7-Amino-2-azabicyclo[2.2.1]heptan-2-yl)(2-(1-(cyclopropylmethyl)-6-(2-hydroxypropan-2-yl)-1H-indol-2-yl)-3-methylpyrazolo[1,5-a]pyridin-6-yl)methanone]
11 | Cc1c(-c2cc3ccc(C(C)(O)C(F)(F)F)cc3n2CC2CC2)nn2cc(C(=O)N3CC4CCC3[C@@H]4N)ccc12 (stereo partly drawn) [Example 101, ((7R)-7-Amino-2-azabicyclo[2.2.1]heptan-2-yl)(2-(1-(cyclopropylmethyl)-6-(1,1,1-trifluoro-2-hydroxypropan-2-yl)-1H-indol-2-yl)-3-methylpyrazolo[1,5-a]pyridin-6-yl)methanone]
